From PMC10652874, “Investigation into the mechanism of action of the antimicrobial peptide epilancin 15X” (Frontiers in Microbiology, 2023)

How the values were obtained:
[1] = system: S. epidermidis ATCC 12228; assay: MIC determination in 96-well microtiter plate; format: cell-based, Staphylococcus epidermidis; conditions: 37°C, 10^5 CFU/mL, OD600 after 18 h
S. carnosus TM300 [2] = assay: Membrane potential study with DiOC2 (flow cytometry); format: cell-based, Staphylococcus carnosus; conditions: S. carnosus TM300, 20 min, 0.5x, 1x, 4x MIC, n = 3
Description: Cultures of S. carnosus TM300 were grown to OD600 1.0 and diluted to OD600 0.1 in fresh BHI medium. The culture was then combined with 30 μM 3,3′-diethyloxacarbocyanine (DiOC2, ThermoFisher D14730) and incubated for 20 min. […] Another two tubes were prepared without antibiotic treatment as controls. The culture was analyzed with a BD Biosciences LSR II flow cytometer using excitation at 488 nm with an argon laser and measurement of emission through a band-pass filter at 616/20 nm. A minimum of 30,000 events were detected for each sample. The experiment was repeated three times, and the mean red/green fluorescence ratio was determined.

[3] = system: RNA biosynthesis in S. carnosus TM300; assay: Macromolecular synthesis assay: 3H-uridine incorporation into RNA; format: cell-based, Staphylococcus carnosus; conditions: S. carnosus TM300, 2× MIC, three independent experiments
Description: (§1) Radiolabel incorporation experiments were carried out similarly as previously described but using S. carnosus ([Wu et al., 2019]). The OD600 of parallel nonradioactive cultures was measured at each time point to normalize the measured radioactivity and minimize effects due to cell death and growth inhibition. The radiolabeled reagents and their corresponding positive and negative antibiotic controls were as follows. […] All experiments were conducted independently three times.
(§2) Figure S3. Thre e in de pen den t ex perime nts of incorporation of (A) 14C- acetic acid into fatty acids, (B) 14C- thymi din e into D NA, (C) 3H-uridi ne into RNA, (D) 14C- lab el ed ami no acids into protei n, and (E) 14C- label ed GlcNAc into cell w all in S. carnosus TM300 cells treated with vario u s antimicro bia l agents. T he p ercent i nco rpo ratio n at 0 min was measured after incubati ng the cel l cultur e with 0.8 μCi/mL radioactive precursors for 15 min. Then 0.5x, 1x, 2x, or 4x MIC epilanci n 15X and 2x MIC controls were added to the cell cultur e (t=0), and t he percent incorporation was measur ed ov er time. Positive controls a re gr een and negative controls are black (cells o nly) an d blu e (co mpo und w ith mo d e o f actio n unr elate d to th e a ssay i n que stio n). […]

[4] = system: cell wall biosynthesis in S. carnosus TM300; assay: Macromolecular synthesis assay: 14C-N-acetyl-D-glucosamine incorporation into cell wall; format: cell-based, Staphylococcus carnosus; conditions: S. carnosus TM300, three independent experiments
Description: as §1, §2

S. carnosus TM300 [5] = assay: Lipid protection assay (MIC with lipid-supplemented growth medium); format: cell-based, Staphylococcus carnosus; conditions: for Epilancin MIC: S. carnosus TM300
Description: MIC determination was performed in a 96-well microtiter plate as described previously ([Wu et al., 2019]). Sensitive bacterial culture was grown in the appropriate medium (BHI for S. carnosus; LB for B. subtilis) at 37°C overnight. The culture was diluted to 10^5 CFU/mL in medium in each well. Epilancin 15X or its analog was dissolved in water and serially diluted to obtain final concentrations of 20, 10, 5, 2.5, 1.25, 0.625, 0.3125, 0.156, 0.078, 0.039, 0.019, and 0.009 μM. OD600 readings were obtained after 18 h using a Synergy H4 Hybrid Multi-Mode Microplate Reader (BioTeK). Cell-free untreated medium, and untreated cell culture were used as negative controls. The MIC of nisin against B. subtilis BSF2470 was determined following the same methods.
The possibility of direct interaction between epilancin 15X and specific lipids was examined through lipid protection assays. […] In an agar diffusion assay, purified S. aureus LTA antagonized the bioactivity of epilancin 15X but not nisin A (Supplementary Figure S5A).

S. carnosus TM300 [6] = assay: Agar diffusion bioactivity assay with lipids in flanking wells; format: cell-based, Staphylococcus carnosus; conditions: S. carnosus TM300 on BHI agar, overnight
Description: For agar diffusion antimicrobial activity assays, the autoclaved 1.5% agar was prepared in the appropriate medium and cooled in a 40°C water bath for 15 min. A total of 50 μL overnight culture of the sensitive strain was added to the agar and kept in the water bath. A total of 25 mL seeded agar was poured into a sterile OmniTray (Nunc) and allowed to solidify at room temperature for 30 min. An additional 35 mL of seeded agar was poured over the lower solidified agar layer. A sterile 96-well PCR plate was placed in the molten agar upper layer, and the agar was allowed to solidify at 25°C for 30 min. After sufficient solidification, the 96-well PCR plate was removed. Then 20 μL volume of each peptide was dispensed into the wells. Plates were left at 25°C for 30 min until the wells were dried, and the plates were incubated at 37°C overnight. The antibacterial activity was determined by the presence or absence of growth inhibition.
Figure S5. (A) Zones of growt h inhibition of epilancin 15X a nd nisin A against S. carnosus TM30 0 grown on BHI agar plates. The indicated amounts of antibiotics were placed in the well shown in the center of the zone of inhibition. […]

[7] = B. subtilis LTA (-) added, ~100 µM
[8] = S. aureus LTA (-) added, ~100 µM

Substance: Epilancin 15X
- MIC [1]: 0.62 µM
- red/green fluorescence ratio of DiOC2 (membrane potential) (S. carnosus TM300 [2]): increase
- RNA biosynthesis (3H-uridine incorporation) [3]: considerably stronger effect than that observed with the respective negative controls
- cell wall biosynthesis (14C-N-acetyl-D-glucosamine incorporation) [4]: no clear change
- Increase in MIC compared to WT (S. carnosus TM300 [5]; [7]): 8 X
- Increase in MIC compared to WT (S. carnosus TM300 [5]; Cardiolipin (-) added, 130 µM): 8 X
- Increase in MIC compared to WT (S. carnosus TM300 [5]; DGDG added, 100 µM): did not display any protection affect
- Increase in MIC compared to WT (S. carnosus TM300 [5]; POPC added, 130 µM): did not display any protection affect
- Increase in MIC compared to WT (S. carnosus TM300 [5]; POPE added, 500 µM): did not display any protection affect
- Increase in MIC compared to WT (S. carnosus TM300 [5]; POPG (-) added, 100 µM): 4 X
- Increase in MIC compared to WT (S. carnosus TM300 [5]; [8]): > 16 X
- Epilancin MIC (S. carnosus TM300 [5]; [7]): 2.5 µM
- Epilancin MIC (S. carnosus TM300 [5]; Cardiolipin (-) added, 130 µM): 2.5 µM
- Epilancin MIC (S. carnosus TM300 [5]; DGDG added, 100 µM): 0.31 µM
- Epilancin MIC (S. carnosus TM300 [5]; POPC added, 130 µM): 0.31 µM
- Epilancin MIC (S. carnosus TM300 [5]; POPE added, 500 µM): 0.31 µM
- Epilancin MIC (S. carnosus TM300 [5]; POPG (-) added, final concentration 100 µM): 1.25 µM
- Epilancin MIC (S. carnosus TM300 [5]; [8]): > 5 µM
- increase of epilancin 15X MIC (S. carnosus TM300 [5]; growth medium supplemented with 2.5 μM LTA isolated from S. aureus): at least 8 fold
- increase of epilancin 15X MIC (S. carnosus TM300 [5]; growth medium supplemented with POPG): at least 4 fold
- increase of epilancin 15X MIC (S. carnosus TM300 [5]; growth medium supplemented with cardiolipin): at least 4 fold
- antagonism of bioactivity (zone of growth inhibition) by purified S. aureus LTA (S. carnosus TM300 [6]): antagonized
